Where two headings read alike, the source gives them in different places.
T1: FGF-R4 ECD (Homo sapiens, UniProt P22455)
T1 construct: DNA constructs for the extracellular domain (ECD) of human FGF-; HPC4 (C); made in house; host or cells: HEK 293-6E
T1 sequence (P22455 22-369 limits assumed): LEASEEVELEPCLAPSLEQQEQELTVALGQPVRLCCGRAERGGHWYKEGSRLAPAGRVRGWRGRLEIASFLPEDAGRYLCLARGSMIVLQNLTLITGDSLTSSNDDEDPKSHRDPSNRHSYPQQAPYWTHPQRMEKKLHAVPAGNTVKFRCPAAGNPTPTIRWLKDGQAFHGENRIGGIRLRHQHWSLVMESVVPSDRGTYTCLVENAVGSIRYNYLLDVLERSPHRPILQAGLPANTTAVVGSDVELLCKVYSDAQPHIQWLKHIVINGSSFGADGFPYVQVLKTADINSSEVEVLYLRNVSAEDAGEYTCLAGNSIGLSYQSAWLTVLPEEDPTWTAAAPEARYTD

T2: FGF-R1C ECD (Homo sapiens, UniProt P11362)
T2 sequence (P11362 22-376 limits assumed): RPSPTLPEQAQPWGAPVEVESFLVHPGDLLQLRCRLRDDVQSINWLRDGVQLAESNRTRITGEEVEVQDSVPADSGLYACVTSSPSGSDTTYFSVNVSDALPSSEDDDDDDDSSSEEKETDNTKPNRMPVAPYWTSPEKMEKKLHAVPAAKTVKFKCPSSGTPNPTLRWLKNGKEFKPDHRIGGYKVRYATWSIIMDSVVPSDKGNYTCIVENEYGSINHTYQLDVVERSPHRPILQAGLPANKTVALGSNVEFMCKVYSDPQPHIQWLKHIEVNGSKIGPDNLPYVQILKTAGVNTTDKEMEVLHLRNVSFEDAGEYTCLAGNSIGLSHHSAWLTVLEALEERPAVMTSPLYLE

T3: FGF-R3C ECD (Homo sapiens, UniProt P22607)
T3 sequence (P22607 23-375 limits assumed): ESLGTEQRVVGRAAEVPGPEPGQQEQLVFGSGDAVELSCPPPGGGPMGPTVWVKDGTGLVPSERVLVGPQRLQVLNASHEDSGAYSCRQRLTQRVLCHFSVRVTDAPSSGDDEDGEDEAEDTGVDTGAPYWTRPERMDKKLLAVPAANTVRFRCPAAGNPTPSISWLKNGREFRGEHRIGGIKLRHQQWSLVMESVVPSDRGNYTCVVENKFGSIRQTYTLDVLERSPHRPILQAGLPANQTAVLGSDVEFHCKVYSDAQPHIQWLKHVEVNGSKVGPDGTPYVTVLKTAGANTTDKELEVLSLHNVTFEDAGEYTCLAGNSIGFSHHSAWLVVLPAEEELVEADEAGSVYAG

T4: FGFR4/KLB (Fc-fused human FGF-R4 with beta-klotho) (Homo sapiens, UniProt P22455)
T4 sequence (P22455 22-369 limits assumed): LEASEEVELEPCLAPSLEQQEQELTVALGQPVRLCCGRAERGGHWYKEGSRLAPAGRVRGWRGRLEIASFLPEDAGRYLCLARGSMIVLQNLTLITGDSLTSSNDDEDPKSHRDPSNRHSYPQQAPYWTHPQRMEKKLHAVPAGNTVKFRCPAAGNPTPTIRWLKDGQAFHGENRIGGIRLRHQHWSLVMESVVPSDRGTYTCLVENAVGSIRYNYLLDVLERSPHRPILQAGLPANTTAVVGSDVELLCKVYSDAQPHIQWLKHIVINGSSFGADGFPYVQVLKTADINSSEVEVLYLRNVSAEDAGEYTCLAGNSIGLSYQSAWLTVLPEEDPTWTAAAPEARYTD

T5: FGFR3c/BKL (Fc-fused human FGF-R3alpha(IIIc) with beta-klotho) (Homo sapiens, UniProt P22607)
T5 sequence (P22607 23-375 limits assumed): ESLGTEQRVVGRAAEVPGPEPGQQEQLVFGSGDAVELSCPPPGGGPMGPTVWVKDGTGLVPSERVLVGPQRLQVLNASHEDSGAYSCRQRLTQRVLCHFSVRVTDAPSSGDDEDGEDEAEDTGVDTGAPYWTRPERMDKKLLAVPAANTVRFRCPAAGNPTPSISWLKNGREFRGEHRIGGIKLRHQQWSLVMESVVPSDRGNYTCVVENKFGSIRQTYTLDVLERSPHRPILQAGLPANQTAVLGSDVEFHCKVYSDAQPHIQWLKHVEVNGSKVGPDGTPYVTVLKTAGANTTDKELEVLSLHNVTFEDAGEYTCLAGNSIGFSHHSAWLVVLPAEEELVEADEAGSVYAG

T6: FGFR1c/KLB (Fc-fused human FGF-R1alpha(IIIc) with beta-klotho) (Homo sapiens, UniProt P11362)
T6 sequence (P11362 22-376 limits assumed): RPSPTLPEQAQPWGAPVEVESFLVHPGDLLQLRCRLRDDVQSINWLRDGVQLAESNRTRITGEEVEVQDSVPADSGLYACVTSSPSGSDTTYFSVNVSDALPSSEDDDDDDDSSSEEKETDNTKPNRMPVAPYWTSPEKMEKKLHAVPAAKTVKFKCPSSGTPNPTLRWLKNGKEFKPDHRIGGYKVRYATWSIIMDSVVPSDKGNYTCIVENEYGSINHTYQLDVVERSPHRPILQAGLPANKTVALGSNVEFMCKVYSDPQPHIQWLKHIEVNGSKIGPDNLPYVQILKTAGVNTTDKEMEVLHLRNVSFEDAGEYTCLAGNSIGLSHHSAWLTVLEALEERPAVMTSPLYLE


How the values were obtained:
FGF-R4 ECD [1] = target: T1, FGF-R4 ECD; experiment: single concentration BLI of crude peptides; type: binding; conditions: crude T18 selection 1 (1:1:1) peptides, single concentration BLI (Table S4); read-out: KD (4)
Method in brief: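 Streptavidin biosensors carrying biotinylated FGF receptor ECD were immersed in peptide (~1 μM for crude single-point runs, a concentration series for purified peptides) and then in peptide-free buffer. KD was obtained by fitting the BLI association and dissociation curves.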

FGF-R4 ECD [2] = target: T1, FGF-R4 ECD; experiment: multi-concentration BLI of purified peptides; type: binding; conditions: purified trimer-18 library peptides
Method in brief: (§1)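 Biolayer interferometry with biotinylated FGF-R ECD on streptavidin biosensors in PBS pH 7.4, 0.05% Tween-20, 0.01% BSA. Multi-concentration: purified peptide dilution series fitted to a multi-point KD model.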

FGF-R1C ECD [3] = target: T2, FGF-R1C ECD; experiment: biochemical
Method in brief: as §1

FGF-R3C ECD [4] = target: T3, FGF-R3C ECD; experiment: biochemical
Method in brief: as §1

FGF-R1C ECD [5] = target: T2, FGF-R1C ECD; experiment: biochemical; type: binding; design: DNA constructs for the extracellular domain (ECD) of human FGF-; HPC4 (C); made in house; host or cells: HEK 293-6E
Method in brief: (§2)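 BLI, streptavidin sensors loaded with biotinylated receptor ECD. Single-point: ~1 μM crude peptide, PBS pH7.4/0.05% Tween-20/0.01% BSA; association then dissociation in buffer. KD corrected for UPLC-CAD-determined concentration.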

FGF-R3C ECD [6] = target: T3, FGF-R3C ECD; experiment: biochemical; type: binding; design: DNA constructs for the extracellular domain (ECD) of human FGF-; HPC4 (C); made in house; host or cells: HEK 293-6E
Method in brief: as §2

[7] = target: T4, FGFR4/KLB (Fc-fused human FGF-R4 with beta-klotho); experiment: AlphaScreen FGF21 competitive binding assay; conditions: read-out: IC50 values for controls (FGF-R4); positive controls, Alphascreen vs biotinylated FGF21
Experimental: Alphascreen binding assay
(§3) The competitive binding assay was carried out according to the methods detailed in Hansen. et al using
(§4) AlphaScreen.3 All reagents and samples were prepared in assay buffer: 40mM Hepes, 140mM NaCl, 1mM
(§5) CaCl2, 0,05% Tween20, pH=7.5, 0.1% BSA. In brief, recombinant human beta-klotho (R&D Systems) was
(§6) preincubated for 60 min with the ectodomain, either Fc-fused human FGF-R1alpha(IIIc), FGF-R3alpha(IIIc)
(§7) or FGF-R4 (R&D Systems), and the mixture was added to the test peptides in OptiPlate™ (PerkinElmer).
(§8) Biotinylated FGF21 and heparin were further added to each well. AlphaScreen bead mix (1:1 mix of Protein
(§9) A acceptor beads/ streptavidin-coated donor beads, PerkinElmer) were added to each well incubated
(§10) overnight at RT in the dark, and measured on a plate reader (Envision). Assays were carried out in triplicates
(§11) with concentrations ranging from 3, 10, 30, 100, 300 ,1000 and 3000 nM of peptide. No peptide control
(§12) (media only) was used as a negative control, and unlabeled FGF21 and FGF1 as positive control.
(§13) competing with biotinylated natural FGF21 ligand.

[8] = target: T5, FGFR3c/BKL (Fc-fused human FGF-R3alpha(IIIc) with beta-klotho); experiment: AlphaScreen FGF21 competitive binding assay; conditions: read-out: IC50 values for controls (FGF-R3C); positive controls, Alphascreen vs biotinylated FGF21
Experimental: Alphascreen binding assay
as §3, §4, §5, §6, §7, §8, §9, §10, §11, §12, §13

[9] = target: T6, FGFR1c/KLB (Fc-fused human FGF-R1alpha(IIIc) with beta-klotho); experiment: AlphaScreen FGF21 competitive binding assay; conditions: read-out: IC50 values for controls (FGF-R1C); positive controls, Alphascreen vs biotinylated FGF21
Experimental: Alphascreen binding assay
as §3, §4, §5, §6, §7, §8, §9, §10, §11, §12, §13

Molecule | Kd (FGF-R4 ECD [1]) | Kd (FGF-R4 ECD [2]) | R4 KD (nM) (FGF-R4 ECD [2]) | Kd (FGF-R1C ECD [3]) | Kd (FGF-R3C ECD [4]) | Kd (FGF-R1C ECD [5]) | Kd (FGF-R3C ECD [6]) | IC50 [7] | IC50 [8] | IC50 [9]
CSCC[C@H](NC(C)=O)C(=O)N[C@H]1CSSC[C@@H](C(=O)NCC(=O)N[C@@H](CO)C(=O)NCC(=O)N[C@@H](CO)C(=O)N[C@@H](CC(=O)O)C(=O)N[C@@H](Cc2ccc(O)cc2)C(=O)N[C@@H](CCCCN)C(=O)N[C@@H](CC(=O)O)C(=O)N[C@@H](CC(=O)O)C(=O)N[C@@H](CC(=O)O)C(=O)N[C@@H](CC(=O)O)C(=O)N[C@@H](CCCCN)C(N)=O)NC(=O)[C@H](C)NC(=O)[C@H](Cc2c[nH]c3ccccc23)NC(=O)[C@H](Cc2ccc(O)cc2)NC(=O)[C@H](CCCNC(=N)N)NC(=O)[C@H](Cc2ccc(O)cc2)NC(=O)[C@H](CO)NC(=O)[C@H](Cc2ccc(O)cc2)NC(=O)[C@H](Cc2ccccc2)NC(=O)[C@H](CC(=O)O)NC(=O)[C@H](CC(=O)O)NC(=O)[C@H](CC(C)C)NC(=O)[C@H](Cc2ccc(O)cc2)NC1=O [4.16] | > 10000 nM | > 1000 nM | no observable binding | 15 nM | 37 nM | 54 nM | > 10000 nM |  |  | 
CSCC[C@H](NC(C)=O)C(=O)N[C@H]1CSSC[C@@H](C(=O)NCC(=O)N[C@@H](CO)C(=O)NCC(=O)N[C@@H](CO)C(=O)N[C@@H](CC(=O)O)C(=O)N[C@@H](Cc2ccc(O)cc2)C(=O)N[C@@H](CCCCN)C(=O)N[C@@H](CC(=O)O)C(=O)N[C@@H](CC(=O)O)C(=O)N[C@@H](CC(=O)O)C(=O)N[C@@H](CC(=O)O)C(=O)N[C@@H](CCCCN)C(N)=O)NC(=O)[C@H](Cc2c[nH]cn2)NC(=O)[C@H](CCCNC(=N)N)NC(=O)[C@H](CC(C)C)NC(=O)[C@H](CC(=O)O)NC(=O)[C@H](CCCCN)NC(=O)[C@H](Cc2ccc(O)cc2)NC(=O)[C@H](CC(C)C)NC(=O)[C@H](CC(C)C)NC(=O)[C@H](C(C)C)NC(=O)[C@H](CC(N)=O)NC1=O [4.17] | > 10000 nM | > 1000 nM |  | > 1000 nM | > 1000 nM | > 10000 nM | > 10000 nM |  |  | 
FGF1: FGF1 used as positive control [reference compound] |  |  |  |  |  |  |  | 7 nM | 3 nM | 4 nM
FGF21: unlabelled FGF21, natural ligand used as positive control (protein, UniProt Q9NSA1 29-209, looked up) Fibroblast growth factor 21: HPIPDSSPLLQFGGQVRQRYLYTDDAQQTEAHLEIREDGTVGGAADQSPESLLQLKALKPGVIQILGVKTSRFLCQRPDGALYGSLHFDPEACSFRELLLEDGYNVYQSEAHGLPLHLPGNKSPHRDPAPRGPARFLPLPGLPPALPEPPGILAPQPPDVGSSDPLSMVGPSQGRSPSYAS |  |  |  |  |  |  |  | 674 nM | 20 nM | 23 nM

From article PMC10763615, “Identification and engineering of potent cyclic peptides with selective or promiscuous binding through biochemical profiling and bioinformatic data analysis” (RSC Chemical Biology, 2023)
